This is an account of results in publication PMC9372747, “Genome-wide analysis of UGT gene family identified key gene for the biosynthesis of bioactive flavonol glycosides in Epimedium pubescens Maxim” (Synthetic and Systems Biotechnology, 2022).

The structures appear in SMILES notation.

For orientation: Km means the substrate concentration at which the rate is half of its maximum.

In the test the test system is T1, EpGT60.
T1 construct: not anchored to any chromosome
The experiment in a line: UPLC of rhamnosylated product, GraphPad Prism fit. The test is classed as biochemical, Epimedium pubescens. The note with it: 4 mM UDP-rhamnose, 1 mM DTT, 50 mM Tris-HCl pH 7.0, 30 °C, 1 h; substrate 100-500 μM.

`CC(C)=CCc1c(O)cc(O)c2c(=O)c(O)c(-c3ccc(O)cc3)oc12` [8-prenylkaempferol]: the Km came to 289 µM.
